Experimental findings from patent US20250339817A1, “A PROCESS FOR THE NITRIC OXIDE ABATEMENT THROUGH BIOLOGICAL TREATMENTS” (FUNDACIÓ EURECAT, priority 2022, published 2025) are described below.

What all share (format): physicochemical
A short description of assay [1]: Mass transfer gas-to-liquid batch tests in a three-phase system (CO2/NO/Aqueous/NAP), NO. The arrangement: concentration or dose not given beside the values. The following applies: phosphate buffer. The protocol: (§1) Mass transfer gas-to-liquid batch tests with a mixture of gases with CO2 and NO were performed to determine the mass transfer rate and selectivity of these gases in the presence of NAP and aqueous phase. The results were compared with respect to blank (water or phosphate buffer at pH 8 without NAP). The initial samples were filled with CO2 to reach a peak transmittance area between 8010 and 8940 cm^−1 and NO to reach a peak of transmittance area between 11 and 14 cm^−1, then 10 mL of each NAP (HTX, HNO and HEX) was injected. Tests were performed with a phosphate buffer at pH 8 at a 10% v/v ratio of NAP/aqueous phase. All experiments were performed in 500 mL amber glass bottles previously prepared in a glove box to maintain an inert atmosphere and carried out per at least triplicate at a temperature of 25° C. and 100 rpm orbital shaking in an incubator. CO2 and NO in the gas phase were measured at the beginning and at the end of the test. Also, the liquid phase was monitored for pH, nitrite (NO2^−) and nitrate (NO3^−) at the end of each test.
(§2) NO and CO2 peak area in the gas phase were measured by Fourier Transform Infrared Spectroscopy (FTIR). In these experiments the peak area was analyzed and not the concentration. Therefore, the performance of the tests will be given in percent (%) area reduction, which is defined in Eq 1. Nitrogen compounds were analyzed in liquid samples after being centrifuged at 15,000 rpm and filtration (0.22 μm) to separate the NAP found in the sample. NO2^− and NO3^− were measured using Hach Lange kits (LCK342 and LCK 339, respectively, Hach Lange, Germany).
(§3) The initial area (Areainitial) is a quantitative measure of the transmittance at certain given wavelengths (NO=1730-1930 cm^−1; CO2=2230-2400 cm^−1) and correlates the presence of the compound in the sample at time=0 h. The final area (Areafinal) is a quantitative measure of the transmittance at the given wavelengths (NO=between 1730-1930 cm^−1; CO2=2230-2400 cm-1) and correlates with the presence of the compound in the sample at time=1 h.

A short description of assay [2]: Mass transfer gas-to-liquid batch tests in a two-phase system with a mixture of gases (CO2/NO/NAP), CO2. The following applies: 1 h. The protocol:
(§4) Mass transfer gas-to-liquid batch tests with a mixture of gases with CO2 and NO were performed to determine the mass transfer rate and selectivity of these gases in the presence of NAP. The initial samples were filled with CO2 to reach a peak transmittance area between 6388 and 8018 cm^−1 and NO to reach a peak of transmittance area between 73 and 84 cm^−1, then 10 mL of each NAP (HTX, HNO and HEX) was injected. CO2 and NO in the gas phase were measured at the beginning and at the end of the test. All experiments were carried out per at least triplicate at a temperature of 25° C. and 100 rpm orbital shaking in an incubator. These tests had also a blank in which the NAP phase was replaced by phosphate buffer (pH=8).
as §2, §3

Assay [3] in a line: Mass transfer gas-to-liquid batch tests in a two-phase system with a mixture of gases (CO2/NO/NAP), NO. The conditions noted are these: 1 h. As for the experimental part: as §4, §2, §3
A short description of assay [4]: Mass transfer gas-to-liquid tests in a two-phase system (CO2/NAP). The following applies: pure CO2 (without gas mixture), 1 h. The protocol:
Mass transfer gas-to-liquid batch tests were performed to determine the mass transfer rate of CO2 in the presence of NAP. The initial samples were filled with CO2 to reach a peak transmittance area between 6200 and 7100 cm-1, then 10 mL of each NAP (HTX, HNO and HEX) was injected. […] CO2 in the gas phase were measured at the beginning and at the end of the test. All experiments were performed in 500 mL amber glass bottles previously prepared in a glove box to maintain an inert atmosphere and carried out per at least triplicate at a temperature of 25° C. and 100 rpm orbital shaking in an incubator.
as §2, §3

Assay [5] can be described thus: Mass transfer gas-to-liquid batch tests in a three-phase system (CO2/NO/Aqueous/NAP), CO2. The following applies: gas mixture, phosphate buffer. The protocol:
as §1, §2, §3

The nature of assay [6]: Nitric oxide (NO) absorption with pure NAPs (batch tests). The conditions noted are these: pure NAP, first screening test, 1 hour, 25° C., initial NO 4500-5100 ppmv. As for the experimental part:
Batch tests with pure NAPs were performed in 120 mL glass amber vials with an initial concentration of NO between 4500 and 5100 ppmv and different amounts of NAPs (DES, SO, HTX, HNO and HEX). For this experiment each NAP was added to a vial containing NO. Each NAP was tested alone. The results were compared with respect to a blank containing deionized water instead of NAP. All experiments were carried out at a temperature of 25° C. and agitation of 100 rpm in an incubator, five replicates were made per point. Gas phase analysis (NO and NO2) was performed at the beginning of the experiment and at the end (1 hour).
NO and NO2 concentrations in the gas phase were measured by Fourier Transform Infrared Spectroscopy (FTIR) from an aliquot of 1 mL (PerkinElmer Inc., Spain). The NO removal efficiency in the tests was calculated from the difference in NO concentration from the beginning and end of each test. Nitrogen compounds and chemical oxygen demand (COD) were analyzed in liquid samples after centrifuged at 15,000 rpm and filtration (0.22 μm) to separate the NAP found in the sample. Nitrite and nitrate were measured using Hach Lange kits (LCK342 and LCK 339, respectively, Hach Lange, Germany). COD was measured using Hach Lange kits (LCK114 and LCK 214, respectively, Hach Lange, Germany).

For the compound `CCCCCCCCCCCCCCCC` [HEX, n-hexadecane], the “NO percent of area reduction” value in assay [1] (with CO2) worked out at 28±3%; in assay [1] (without CO2), 26±5%; in assay [3], 31±6%. Moreover, the “CO2 peak area reduction” value in assay [2] is reported as 15±2%; in assay [4], 11±3%. Further, in assay [5], the “CO2 peak area difference” value is reported as 8±2%. In addition, the “RE NO (NO removal efficiency)” value in assay [6] was 29.2%.

With `CC(CC(C)(C)C)CC(C)(C)CC(C)(C)C` (centres unmarked) [HNO, 2,2,4,4,6,8,8-heptamethylnonane], the “NO percent of area reduction” value in assay [1] (with CO2) is on record as 54±4%; in assay [1] (without CO2), 32±4%; in assay [3] it was 21±4%. For the same compound, the “CO2 peak area reduction” value is 13±0.3% in assay [2] and 18±3% in assay [4]. In addition, in assay [5], the “CO2 peak area difference” value is listed as 3±7%.

Consider `C[SiH](O[Si](C)(C)C)O[Si](C)(C)C` [HTX, 1,1,1,3,5,5,5-heptamethyl-trisiloxane], for which the “NO percent of area reduction” value in assay [1] (with CO2) is 56±7%; in assay [1] (without CO2), 70±3%; in assay [3], 62±5%. Moreover, the “CO2 peak area reduction” value was 97±0.9% in assay [2] and 99±0.2% in assay [4]. In addition, in assay [5], the “CO2 peak area difference” value came out at 7±2%. Besides, the “RE NO (NO removal efficiency)” value in assay [6] stood at 49.2%.
